In patent US20240051997A1, “SAP AND PEPTIDOMIMETIC COMPOSITIONS FOR REDUCING SYMPTOMS OF INFLAMMATION” (Arch Biosurgery, Inc., priority 2018, published 2024):
“Also recorded” adds a separate entry of the source.

Assays:
[1] = system: liver inflammation, ED-1 reactivity (macrophage activation); experiment: Rat liver injury model (punch biopsy), ED-1 immunohistochemistry; format: in vivo, Sprague-Dawley rat; settings: 4 mm punch biopsy, all time-points observed, compared to saline or acid controls
Description: The anti-inflammatory effects of EARA-16 (SEQ ID NO: 89) and RADA-16 (SEQ ID NO: 1) SAPs were examined using a liver injury model. Levels of inflammation were assayed through immuno-histochemical ED-1 reactivity (ED-1 serves as a marker of macrophage activation).
Pigs or adult Sprague-Dawley rats were anesthetized and their intraperitoneal cavities were opened under aseptic conditions. For each animal, the liver was exposed and then subjected to an 8 mm (pig) or 4 mm (rat) punch biopsy.
The punch sites were then cauterized or treated with acid (for pH control), saline, or RADA-16 (SEQ ID NO: 1) or EARA-16 (SEQ ID NO: 89) solutions. The animals were allowed to survive for up to 14 days. The animals were then sacrificed and their livers were harvested and sectioned. An ED-1 antibody was used to determine the level of inflammation and activation of macrophages in the liver via immunohistochemistry (IHC).

Human THP-1 cells = experiment: Cytokine release by THP-1 cells exposed to LPS/RADA-16 mixture; format: cell-based; settings: LPS 1 μg/ml added to 1, 10 or 100 μg/well peptide, then to THP-1 cells
Description: The anti-inflammatory effect of a SAP was examined using an in vitro assay to assess cytokine release by human THP-1 cells in the presence of SAP. Measurement of THP-1 cell activation in response to antigen was assessed by cytokine release.
To assess cytokine release upon THP-1 cell activation, lipopolysaccharides (LPS) from Salmonella typhimurium (catalog no. L-7261; Sigma-Aldrich, St. Louis, MO) were added to THP-1 cells, at a concentration of 1 μg/ml.
To determine the effects of exposing THP-1 cells to RADA-16 (SEQ ID NO: 1) upon cytokine release, LPS was added to each of the 1 μg/well, 10 μg/well, or 100 μg/well RADA-16 samples, and then added to THP-1 cells.
The release of cytokines in response to exposure of THP-1 cells to RADA-16 (SEQ ID NO: 1) or LPS was measured using the PROTEOME PROFILER™ Array kit, commercially available as a test strip kit for detection of cytokines in solution (R&D Systems, Inc., Catalog Number ARY005). The assay was carried out according to the manufacturer's guide lines.

[2] = system: olfactory bulb inflammation, GFAP (reactive astrocytes); experiment: Olfactory bulb injury model (transection), GFAP immunohistochemistry; format: in vivo, Sprague-Dawley rat; settings: rat olfactory bulb, days 2-14
Description: The anti-inflammatory effects of EARA-16 (SEQ ID NO: 89) and RADA-16 (SEQ ID NO: 1) were examined using an olfactory bulb injury model. Levels of inflammation were assayed through immunohistochemical staining for glial fibrillary acidic protein (GFAP) as an indicator of reactive astrocytes.
In brief, the olfactory bulbs of adult Sprague-Dawley rats were unilaterally transected and the cuts were then treated with either saline as a control, or one of RADA-16 (SEQ ID NO: 1) or EARA-16 (SEQ ID NO: 89) solutions (each used at 1% and 3%). The SAP materials were injected into the cuts post transection at the time of surgery. After 2, 7 or 14 days, the animals were sacrificed.
A more detailed protocol is as follows: adult Sprague-Dawley rats were anesthetized with a mixture of ketamine (80 mg/kg, i. p.) and xylazine (8 mg/kg, i. p.). The head was shaved and a thorough disinfection of the head surface was carried out with iodine 5% solution. The bilateral olfactory bulbs were exposed by drilling two burr holes (2 mm diameter, 8 mm anterior to the bregma) on either side at a distance of 2 mm from the midline of the frontal bone in the region overlying the olfactory bulbs. A cataract knife with a blunted end and one sharpened edge was used for surgery. The cut was performed on the middle of olfactory bulb. The blunted edge of the knife was inserted along the middle line of the olfactory bulb to prevent damage of the sagittal sinus, until the tip of the knife lightly touched the bottom of the brain without penetration of the dura. The knife was then moved laterally to transect the bulb until it reached the lateral edge of the hole. The knife was then rotated and pulled out to have a complete cut of the bulb at lateral side. This procedure was modified from the method described in several previous studies attempting to isolate the olfactory bulb from other parts of the brain (Ahrens & Freeman 2001; Allison 1953; Chaput 1983; Freeman 1968; Koliatsos et al 2004; Munirathinam et al 1997).
After performing the cut, one of the solutions was used to treat the injury site: either 10 μl saline (control group) or the EARA-16 (SEQ ID NO: 89) or RADA-16 (SEQ ID NO: 1) SAP (at a concentration of 1% and 3%) was injected evenly into the wound site using a self-constructed hydraulic pressure injection system without micro syringe. This technique was modified from similar methods as described by Bullier and others (Bullier et al 1980; Fish & Rhoades 1981; Kratskin et al 1997; Meyers & Snow 1981; Price et al 1977; Shipley 1982). Care was taken to control the speed of the injection of the saline or the SAP. After the injection, the wound was closed and the animals were placed in a warm place for recovery before they were brought back to their home cages. […]

Sequence: RADARADARADARADA [RADA-16, self-assembling peptide]
- levels of inflammation in liver (ED-1 IHC) [1]: markedly reduced the levels of inflammation
- cytokine release upon LPS exposure (C5a, TNFSF2, IL-6, IL-8/CXCL8, MCP-1/CCL2, MIP-1/CCL3, MIP-1/CCL4, IL-1/IL1-F2) (Human THP-1 cells): reduced levels of cytokine release; also recorded: prevented or reduced the release of cytokines
- time course of reactive astrocyte activation / inflammation (GFAP) ([2]; 1% solution): increased activation of reactive astrocytes on day 7 which subsequently reduced by day 14
- time course of reactive astrocyte activation / inflammation (GFAP) ([2]; 3% solution): increased activation of reactive astrocytes on day 7 which subsequently reduced by day 14
